Measurements as given in PMC5727842, “Antioxidant and Antidiabetic Effects of Flavonoids: A Structure-Activity Relationship Based Study” (BioMed Research International, 2017).
Converted amounts (≈) assume the structure as drawn.

Key:
[1] = Rapid screening of radical scavenging activity by dot blot assay (DPPH staining); conditions: silica sheet stained with DPPH in MeOH, dilutions from 1000 μg/mL
Method: An aliquot (20 μL) of each dilution of each group was carefully loaded on a […] TLC plate and allowed to dry for 10 min. Drops of each sample were loaded in the order of decreased concentration along the 16 columns. The staining of the silica plate was based on the procedure of Soler-Rivas et al.. […] The intensity of the yellow color depends upon the amount and nature of radical scavenger present in the flavonoids.

[2] = Ferric reducing antioxidant power (FRAP); conditions: for FRAP (AAE μg): ascorbic acid equivalent, mean ± SEM (n = 3), Table 2
Method: This assay was based on the reduction of the ferric tripyridyltriazine (Fe III-TPTZ) complex to the ferrous ion (Fe II) at a low pH forming an intense blue color. In the FRAP assay, compounds that are rich in antioxidant effect exert their action by breaking the free radical chain by donating a hydrogen atom. Briefly, ferric reducing antioxidant power (FRAP) reagent (2.5 mL of a 10 mM TPTZ solution in 40 mM HCl, 2.5 mL of 20 mM FeCl3, and 25 mL of 0.1 M acetate buffer pH 3.6) was prepared and incubated for 10 min at 37°C. Then 20 μL of each compound and ascorbic acid (standard) and 40 μL of FRAP reagent were added to 140 μL of distilled water in a 96-well plate producing a blue-colored solution. The solutions were kept at room temperature for 20 min in the dark and then measured at 593 nm with a microplate reader (Tecan, Switzerland) using a reagent blank composed of 40 μL of FRAP reagents in 200 μL of distilled water. A calibration curve was prepared with a serial dilution of ascorbic acid (standard). The total antioxidant capacity was calculated by interpolating the measured absorbance of the calibration curve and expressed as ascorbic acid equivalents. The results were corrected for dilution and expressed as AAE μg of ascorbic acid/g.

[3] = ABTS+ radical scavenging assay; conditions: 734 nm, mean ± SEM (n = 3)
Method: An improved ABTS^+ radical decolorization assay was carried out involving direct production of the blue/green ABTS^+ chromophore through the reaction between ABTS and potassium persulfate. Addition of antioxidant to the preformed radical cation reduces it to ABTS to an extent on a time scale depending on the antioxidant activity, the concentration of the antioxidant, and the duration of the reaction. 1 ml ABTS was dissolved in water to make 7 mM concentration of the resultant solution. […] The resultant reaction mixture was allowed to stand in the dark at room temperature for 12–16 h before being used. The ABTS^+ radical solution was diluted with MeOH to an absorbance of 0.7 (±0.02) at 734 nm. Then, 100 μl of sample at various concentrations (1000–0.4889 μg/mL) was mixed with 100 μL of diluted ABTS^+ radical. Each concentration was analyzed in triplicate and the percentage decrease of absorbance at 734 nm with a microplate reader (Tecan NanoQuant Infinite M200, Switzerland) was calculated for each point and the antioxidant capacity of the tested compounds was expressed as percent inhibition (%). The radical scavenging activity of the compounds was measured according to the following equation [29]:(2) % inhibition=Acontrol−Asample/Acontrol×100. IC50 values were calculated by linear regression of plots, and the average percent of scavenging capacity was taken from three replicates. Trolox was used as a standard in comparison for the determination of the antioxidant activity of the flavonoids.

[4] = target: α-glucosidase from Saccharomyces cerevisiae; assay: α-Glucosidase inhibitory assay; type: biochemical; conditions: Table 3; mean ± SEM (n = 3); NA: not active
Method: α-Glucosidase inhibitory activity of the flavonoids was carried out according to the standard method with minor modification. […] A solution of 30 mM phosphate buffer (pH 6.5) was used to prepare stock solution of the sample to form a final concentration of 160 μg/mL. Then, 10 μL/well of sample was mixed with 15 μL/well of α-glucosidase from Saccharomyces cerevisiae (Megazyme, Ireland). 50 mM buffer (pH 6.5) was used to prepare the enzyme solution. Then, 115 μL/well of 30 mM buffer (pH 6.5) was added and incubated for 5 min at room temperature. Then, 75 μL/well of PNP-glucoside was added to initiate reaction and incubated at room temperature for 15 min. Finally, about 50 μL glycine at pH 10 was added to stop the reaction. The final volume of 250 μL of compound, positive control, enzyme, 30 mM buffer, and substrate was located in 96-well microplate. The absorbance (Abs) was measured using microplate reader (Tecan NanoQuant Infinite M200, Switzerland) at 405 nm to represent the amount of p-nitrophenol released from PNP-glucoside. […] The equation given below was used to calculate the inhibitory activity (%):(4) Inhibitory activity%=Abs control−Abs sample/Abs control×100%.
Tested on yeast α-glycosidase, the reaction is initiated by reacting the inhibitor (sample) with the α-glycosidase enzyme that competes with […] for the binding site, thus releasing ρ-nitrophenol which was measured in the assay.

[5] = DPPH radical scavenging assay; conditions: 30 min, 517 nm, mean ± SEM (n = 3)
Method: Each sample's stock solution was diluted to final concentrations of 1000–0.4889 μg/mL in MeOH. A total of 1 mL of a 0.3 mM DPPH methanolic solution was added to 2.5 mL of sample solution of different concentrations and allowed to react at room temperature. After 30 min, the absorbance (Abs) values were measured at 517 nm with a microplate reader (Tecan NanoQuant Infinite M200, Switzerland) and converted into the percentage antioxidant activity using the following equation described previously: (1) % antioxidant activity=100−Abssample−Abssample blank/Abscontrol−Abscontrol blank×100. MeOH + compound solution was used as a blank, while DPPH solution plus MeOH was used as a negative control. The positive controls were DPPH solution plus 1 mM ascorbic acid. The IC50 values were calculated by linear regression of plots. The average percent of scavenging capacity was taken from three replicates.

**Q.** Which “radical scavenging activity by dot blot (intensity of yellow spots)” value [1] does the source give for `COc1cc(O)c2c(=O)cc(-c3ccccc3)oc2c1` [Techtochrysin, 5-Hydroxy-7-methoxyflavone] here?
**A.** intermediate radical scavenging activity

**Q.** What about the FRAP antioxidant capacity [2] of the same compound?
**A.** 11.49 ± 0.32 AAE μg of ascorbic acid/g

**Q.** What about the “FRAP (AAE μg)” value [2] of the same compound?
**A.** 11.49 ± 0.32^F AAE μg

**Q.** What about the “IC50 ABTS+” value [3] of the same compound?
**A.** 45.59 ± 4.75^E µg/ml

**Q.** What about the “IC50 α-Glucosidase” value [4] of the same compound?
**A.** >100^A µg/mg

**Q.** And the “IC50 DPPH” value [5]?
**A.** >100^B µg/ml

**Q.** Which “radical scavenging activity by dot blot (intensity of yellow spots)” value [1] does the source give for `O=c1cc(-c2ccc(O)c(O)c2)oc2c(O)c(O)cc(O)c12` [Hypolaetin, 3′,4′,5,7,8-Pentahydroxyflavone] here?
**A.** strong radical scavenging activity

**Q.** And the “FRAP (AAE μg)” value [2]?
**A.** 177.37 ± 1.82^B AAE μg

**Q.** What about the “IC50 ABTS+” value [3] of the same compound?
**A.** 0.80 ± 0.03^FG µg/ml

**Q.** What about the “IC50 α-Glucosidase” value [4] of the same compound?
**A.** 48.42 ± 9.71 µg/mL (≈ 160 µM)

**Q.** What about the “IC50 DPPH” value [5] of the same compound?
**A.** 3.69 ± 0.11^Ha µg/ml
